How the values were obtained:
[1] = biological target: T1, MjFtsZ (Methanocaldococcus jannaschii, UniProt Q57816); assay: light scattering of polymer assembly; format: biochemical; conditions: 5 mM BeF3- with GTP, 55 °C; stabilizes polymers, repolymerization after disassembly
T1 construct: gene ftsZ1; full-length, nucleotide-devoid (apo)

[2] = biological target: T2, SaFtsZf (Staphylococcus aureus, UniProt P0A029); assay: light scattering of polymer assembly; format: biochemical; conditions: 10 mM MgCl2, pH 6.5, 25 °C
T2 construct: gene ftsZ
T2 sequence (P0A029 1-390): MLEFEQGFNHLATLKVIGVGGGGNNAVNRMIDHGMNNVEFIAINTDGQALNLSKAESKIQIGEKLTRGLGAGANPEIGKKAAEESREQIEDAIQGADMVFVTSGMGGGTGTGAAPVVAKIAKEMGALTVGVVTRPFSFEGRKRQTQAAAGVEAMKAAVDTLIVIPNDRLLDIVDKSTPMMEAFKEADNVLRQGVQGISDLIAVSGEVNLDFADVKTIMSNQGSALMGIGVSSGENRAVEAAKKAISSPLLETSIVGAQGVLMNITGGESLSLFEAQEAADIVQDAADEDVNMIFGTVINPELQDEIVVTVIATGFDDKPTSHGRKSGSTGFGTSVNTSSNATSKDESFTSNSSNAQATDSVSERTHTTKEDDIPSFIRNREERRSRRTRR

[3] = biological target: T2, SaFtsZf; assay: electron microscopy of polymers; format: biochemical; conditions: MES assembly buffer, 25 °C
[4] = biological target: the molecule itself; assay: right angle light scattering; self-assembly of full-length FtsZ with 1 mM GTP and MgCl2 in MES assembly buffer; SaFtsZf 49 uM and EcFtsZ 25 uM at 25 C, apo-MjFtsZ 15 uM at 55 C; SaFtsZf polymers also seen by electron microscopy

## [F][Be-]([F])[F] [BeF3^−]
[1]
  light scattering of polymer assembly: Repolymerization with BeF3^− after disassembly was observed for MjFtsZ
[2]; 1-5 mM BeF3- with 1 mM GTP, stabilizes polymers
  light scattering of polymer assembly: Assembly of full-length SaFtsZ is stabilized by BeF3^−

## Nc1nc2c(ncn2[C@@H]2O[C@H](COP(=O)(O)CP(=O)(O)OP(=O)(O)O)[C@@H](O)[C@H]2O)c(=O)[nH]1 [GMPCPP, guanosine-5′-[(α,β)-methyleno]triphosphate]
[3]
  electron microscopy of polymers: Polymers formed with GMPCPP

## Nc1nc2c(ncn2[C@@H]2O[C@H](COP(=O)(O)OP(=O)(O)OP(=O)(O)O)[C@@H](O)[C@H]2O)c(=O)[nH]1 [GTP]
[2]; 1 mM GTP
  light scattering of polymer assembly: The sample with GTP depolymerized upon nucleotide consumption (blue line)

B1: full-length FtsZ from E. coli (natural protein, Escherichia coli, UniProt P0A9A6 1-383, looked up)
chain: MFEPMELTNDAVIKVIGVGGGGGNAVEHMVRERIEGVEFFAVNTDAQALRKTAVGQTIQIGSGITKGLGAGANPEVGRNAADEDRDALRAALEGADMVFIAAGMGGGTGTGAAPVVAEVAKDLGILTVAVVTKPFNFEGKKRMAFAEQGITELSKHVDSLITIPNDKLLKVLGRGISLLDAFGAANDVLKGAVQGIAELITRPGLMNVDFADVRTVMSEMGYAMMGSGVASGEDRAEEAAEMAISSPLLEDIDLSGARGVLVNITAGFDLRLDEFETVGNTIRAFASDNATVVIGTSLDPDMNDELRVTVVATGIGMDKRPEITLVTNKQVQQPVMDRYQQHGMAPLTQEQKPVAKVVNDNAPQTAKEPDYLDIPAFLRKQAD
notes: full-length FtsZ from Escherichia coli, wild-type protein; also called EcFtsZ; Escherichia coli FtsZ; source: purified as described [54]
[4]
  binding result: binds

B2: nucleotide-devoid, full-length FtsZ from M. jannaschii (natural protein, Methanocaldococcus jannaschii, UniProt Q57816 1-364, looked up)
chain: MKFLKNVLEEGSKLEEFNELELSPEDKELLEYLQQTKAKITVVGCGGAGNNTITRLKMEGIEGAKTVAINTDAQQLIRTKADKKILIGKKLTRGLGAGGNPKIGEEAAKESAEEIKAAIQDSDMVFITCGLGGGTGTGSAPVVAEISKKIGALTVAVVTLPFVMEGKVRMKNAMEGLERLKQHTDTLVVIPNEKLFEIVPNMPLKLAFKVADEVLINAVKGLVELITKDGLINVDFADVKAVMNNGGLAMIGIGESDSEKRAKEAVSMALNSPLLDVDIDGATGALIHVMGPEDLTLEEAREVVATVSSRLDPNATIIWGATIDENLENTVRVLLVITGVQSRIEFTDTGLKRKKLELTGIPKI
notes: full-length FtsZ from Methanocaldococcus jannaschii, nucleotide-devoid; also called apo-MjFtsZ; MjFtsZ; source: prepared as reported [55]
[4]
  binding result: binds

B3: full-length FtsZ from S. aureus (natural protein, Staphylococcus aureus Mu50/ATCC 700699, UniProt P0A029 1-390, looked up)
chain: T2 sequence (P0A029 1-390)
notes: full-length FtsZ from methicillin-resistant S. aureus Mu50/ATCC 700699; also called SaFtsZf; full-length SaFtsZ
[4]
  binding result: binds

From publication PMC8936486 (PLoS Biology, 2022)
